Numbers after ± are expanded uncertainties.
Conditions: Fluid (supercritical or subcritical phases), Bellows volumetry

CC(C)C [2-methylpropane]
mass density [kg/m3]
Conditions	360 K	400 K	440 K	500 K	550 K	600 K
50000 kPa	568.86 ± 0.76	539.91 ± 0.88	512.43 ± 0.76	472.16 ± 0.76	440.41 ± 0.76	410.52 ± 0.76
60000 kPa	579.25 ± 0.88	552.31 ± 0.88	526.93 ± 0.76	489.95 ± 0.76	460.74 ± 0.76	433.26 ± 0.76
70000 kPa	588.53 ± 0.88	563.06 ± 0.88	539.33 ± 0.76	504.87 ± 0.76	477.5 ± 0.76	451.97 ± 0.76
80000 kPa	597.04 ± 0.88	572.73 ± 0.88	550.28 ± 0.76	517.77 ± 0.76	492.04 ± 0.76	467.84 ± 0.76
90000 kPa	604.5 ± 0.88	581.56 ± 0.88	559.97 ± 0.76	529.04 ± 0.76	504.6 ± 0.76	481.73 ± 0.76
100000 kPa	611.74 ± 0.76	589.43 ± 0.76	568.96 ± 2.9	539.24 ± 2.9	515.83 ± 2.9	494.03 ± 2.9
120000 kPa	624.36 ± 0.76	603.57 ± 0.76	584.57 ± 2.9	557 ± 2.9	535.44 ± 2.9	515.09 ± 2.9
140000 kPa	635.51 ± 0.76	615.95 ± 0.76	598.12 ± 2.9	572.25 ± 2.9	551.94 ± 2.9	532.7 ± 2.9
160000 kPa	645.68 ± 0.76	627.09 ± 0.76	610.19 ± 2.9	585.63 ± 2.9	566.41 ± 2.9	548.14 ± 2.9
180000 kPa	655.03 ± 0.76	637.21 ± 0.76	621.17 ± 2.9	597.32 ± 2.9	579.21 ± 2.9	561.73 ± 2.9
200000 kPa	663.47 ± 0.76	646.22 ± 0.76	631.03 ± 2.9	607.94 ± 2.9	590.74 ± 2.9	573.91 ± 2.9

CCC [propane]
mass density [kg/m3]
Conditions	360 K	400 K	440 K	500 K	550 K	600 K
50000 kPa	520.66 ± 0.88	488.73 ± 0.88	457.63 ± 0.76	413.41 ± 0.76	380.04 ± 0.76	349.68 ± 0.76
60000 kPa	532.63 ± 0.88	503.01 ± 0.88	474.47 ± 0.76	434.04 ± 0.76	403.51 ± 0.76	375.39 ± 0.76
70000 kPa	543.15 ± 0.88	515.19 ± 0.88	488.72 ± 0.76	450.94 ± 0.76	422.59 ± 0.76	396.1 ± 0.76
80000 kPa	552.56 ± 0.88	525.98 ± 0.88	500.95 ± 0.76	465.53 ± 0.76	438.76 ± 0.76	413.71 ± 0.76
90000 kPa	560.92 ± 0.88	535.66 ± 0.88	511.84 ± 0.76	477.92 ± 0.76	452.84 ± 0.76	428.88 ± 0.76
100000 kPa	568.67 ± 0.76	544.28 ± 0.76	521.48 ± 2.9	489.12 ± 2.9	464.72 ± 2.9	442.26 ± 2.9
120000 kPa	582.46 ± 0.76	559.78 ± 0.76	538.35 ± 2.9	508.54 ± 2.9	485.88 ± 2.9	465.07 ± 2.9
140000 kPa	594.1 ± 0.76	573.12 ± 0.76	552.91 ± 2.9	524.91 ± 2.9	503.64 ± 2.9	484.26 ± 2.9
160000 kPa	605.2 ± 0.76	584.9 ± 0.76	565.72 ± 2.9	539.2 ± 2.9	518.92 ± 2.9	500.33 ± 2.9
180000 kPa	614.83 ± 0.76	595.54 ± 0.76	577.17 ± 2.9	551.84 ± 2.9	532.53 ± 2.9	514.78 ± 2.9
200000 kPa	624.04 ± 0.76	605.48 ± 0.76	587.69 ± 2.9	563.13 ± 2.9	544.69 ± 2.9	527.68 ± 2.9

From the NIST ThermoML archive (doi:10.1007/s10765-012-1383-x)
